Patent US20100261706A1, “SUBSTITUTED TETRACYCLIC 1H-INDENO [1,2-B]PYRIDINE-2(5H)-ONE ANALOGS THEREOF AND USES THEREOF” (INOTEK PHARMACEUTICALS CORPORATION, priority 2008, published 2010)
Structures can show the parent of a compound that is named as a salt.

Legend:
PARP-1 enzyme = target: T1, PARP-1 enzyme (Homo sapiens, UniProt P09874); assay: Purified PARP-1 enzyme inhibition assay (Trevigen kit, 96 well ELISA plates); type: biochemical
T1 construct: purchased Trevigen, Gaithersburg, Md
Procedure: Effect of Tetracyclic 1H-indeno[1,2-b]pyridine-2(5H)-one analogs on PARP Activity in purified PARP-1 enzyme assay
The potency of inhibition on purified PARP-1 enzyme was subsequently determined for selected compounds, and the potency was compared with INO-1001. The assay was performed in 96 well ELISA plates according to instructions provided with a commercially available PARP-1 inhibition assay kit (Trevigen, Gaithersburg, Md.). Briefly, wells were coated with 1 mg/ml histone (50 μl/well) at 4° C. overnight. Plates were then washed four times with PBS and then blocked by adding 50 μl Strep-Diluent (supplied with the kit). After incubation (1 h, 25° C.), the plates were washed four times with PBS. Appropriate dilutions of compound was combined with 2×PARP cocktail (1.95 mM NAD^+, 50 μM biotinylated NAD^+ in 50 mM TRIS pH 8.0, 25 mM MgCl2) and high specific activity PARP enzyme (both were supplied with the kit) in a volume of 50 μl. The reaction was allowed to proceed for 30 min at room temperature. After 4 washes in PBS, incorporated biotin was detected by peroxidase-conjugated streptavidin (1:500 dilution) and TACS Sapphire substrate. EC50 and IC50 values were determined from a dose-response curve.

PARP = target: T2, PARP (Mus musculus, UniProt P11103); assay: PARP activity in cultured macrophages, whole-cell based assay (3H-NAD+ incorporation after hydrogen peroxide); conditions: murine RAW macrophages, 1 hour pretreatment, hydrogen peroxide 0.5 mM
T2 construct: PARP Activity in Cultured Macrophages, Using a Whole-Cell Based Assay; endogenous in cells; host or cells: murine RAW macrophages (ATCC)
T2 sequence (P11103 whole entry): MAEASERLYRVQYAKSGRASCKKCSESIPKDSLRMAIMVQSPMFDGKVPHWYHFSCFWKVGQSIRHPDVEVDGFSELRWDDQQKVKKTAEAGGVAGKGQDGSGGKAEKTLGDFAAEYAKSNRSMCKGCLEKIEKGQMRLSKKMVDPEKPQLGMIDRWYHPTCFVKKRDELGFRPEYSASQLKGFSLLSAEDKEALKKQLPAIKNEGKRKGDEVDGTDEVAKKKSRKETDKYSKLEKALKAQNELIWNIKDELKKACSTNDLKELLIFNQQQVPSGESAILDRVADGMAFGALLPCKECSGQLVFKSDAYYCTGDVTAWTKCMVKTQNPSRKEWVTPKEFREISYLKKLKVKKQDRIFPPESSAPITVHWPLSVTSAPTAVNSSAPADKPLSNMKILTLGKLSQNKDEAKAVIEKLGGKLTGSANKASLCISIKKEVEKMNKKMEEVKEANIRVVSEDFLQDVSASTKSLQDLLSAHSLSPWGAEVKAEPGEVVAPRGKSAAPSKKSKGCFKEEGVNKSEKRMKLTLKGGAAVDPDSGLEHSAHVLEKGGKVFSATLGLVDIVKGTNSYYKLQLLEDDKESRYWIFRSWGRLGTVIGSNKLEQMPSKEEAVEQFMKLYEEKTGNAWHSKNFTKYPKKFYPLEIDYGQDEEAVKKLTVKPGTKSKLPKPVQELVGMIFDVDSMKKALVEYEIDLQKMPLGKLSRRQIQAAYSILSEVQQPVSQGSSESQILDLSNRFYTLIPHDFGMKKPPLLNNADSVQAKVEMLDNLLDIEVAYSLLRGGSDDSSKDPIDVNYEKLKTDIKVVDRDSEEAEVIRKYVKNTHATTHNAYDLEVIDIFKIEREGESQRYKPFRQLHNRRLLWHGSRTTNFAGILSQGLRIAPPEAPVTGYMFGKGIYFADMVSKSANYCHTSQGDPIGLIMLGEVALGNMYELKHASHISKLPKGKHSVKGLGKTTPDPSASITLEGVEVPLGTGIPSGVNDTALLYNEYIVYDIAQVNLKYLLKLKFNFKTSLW
Procedure: Effect of Tetracyclic 1H-indeno[1,2-b]pyridine-2(511)-one Analogs on PARP Activity in Cultured Macrophages, Using a Whole-Cell Based Assay
The murine RAW macrophages (ATCC, American Type Culture Collection, Manassas, Va.) were grown in […] (Invitrogen Life Technologies; Carlsbad, Calif.) medium supplemented with 10% heat-inactivated FBS, 2 mM L-glutamine, and 100 U/ml of penicillin and streptomycin. Cells, between passages 5 and 15, were seeded at a density of 250,000 cells/well in 12 well plates and allowed to grow 48 hours before use. Growth medium was changed on the day of use. Cells were treated with a tetracyclic 1H-indeno[1,2-b]pyridine-2(5H)-one analog diluted in a growth medium supplemented with 10% fetal bovine serum (FBS) for 1 hour prior to the addition of hydrogen peroxide (0.5 mM) for a further 25 minutes. For the measurement of PARP activity, media was removed and replaced with 0.5 ml of the assay buffer (56 mM HEPES-pH 7.5, 28 mM KCl, 28 mM NaCl, 2 mM MgCl2, 0.01% digitonin, and 0.5 μCi/ml of ^3H-NAD^+) for 20 minutes. After aspirating the assay buffer, cells were lysed and transferred to eppendorf tubes containing 250 μl of 50% ice-cold trichloroacetic acid (TCA), which were then placed at 4° C. for 4 hours. Samples were centrifuged at 10,000 g for 10 minutes and supernatant removed. The pellets were washed twice with 500 μl of ice-cold 5% w/v TCA. The pellets were then solubilized in 250 μl of NaOH (0.1 M) containing 2% SDS overnight at 37° C. and the PARP activity was then determined by measuring the radioactivity incorporated using a Wallac scintillation counter. The solubilized protein (250 μl) was mixed with 5 ml of scintillation fluid (ScintiSafe Plus, Fisher Scientific) before being counted for 3 minutes. EC50 values were determined from a dose-response curve.

T1 sequence (P09874 whole entry): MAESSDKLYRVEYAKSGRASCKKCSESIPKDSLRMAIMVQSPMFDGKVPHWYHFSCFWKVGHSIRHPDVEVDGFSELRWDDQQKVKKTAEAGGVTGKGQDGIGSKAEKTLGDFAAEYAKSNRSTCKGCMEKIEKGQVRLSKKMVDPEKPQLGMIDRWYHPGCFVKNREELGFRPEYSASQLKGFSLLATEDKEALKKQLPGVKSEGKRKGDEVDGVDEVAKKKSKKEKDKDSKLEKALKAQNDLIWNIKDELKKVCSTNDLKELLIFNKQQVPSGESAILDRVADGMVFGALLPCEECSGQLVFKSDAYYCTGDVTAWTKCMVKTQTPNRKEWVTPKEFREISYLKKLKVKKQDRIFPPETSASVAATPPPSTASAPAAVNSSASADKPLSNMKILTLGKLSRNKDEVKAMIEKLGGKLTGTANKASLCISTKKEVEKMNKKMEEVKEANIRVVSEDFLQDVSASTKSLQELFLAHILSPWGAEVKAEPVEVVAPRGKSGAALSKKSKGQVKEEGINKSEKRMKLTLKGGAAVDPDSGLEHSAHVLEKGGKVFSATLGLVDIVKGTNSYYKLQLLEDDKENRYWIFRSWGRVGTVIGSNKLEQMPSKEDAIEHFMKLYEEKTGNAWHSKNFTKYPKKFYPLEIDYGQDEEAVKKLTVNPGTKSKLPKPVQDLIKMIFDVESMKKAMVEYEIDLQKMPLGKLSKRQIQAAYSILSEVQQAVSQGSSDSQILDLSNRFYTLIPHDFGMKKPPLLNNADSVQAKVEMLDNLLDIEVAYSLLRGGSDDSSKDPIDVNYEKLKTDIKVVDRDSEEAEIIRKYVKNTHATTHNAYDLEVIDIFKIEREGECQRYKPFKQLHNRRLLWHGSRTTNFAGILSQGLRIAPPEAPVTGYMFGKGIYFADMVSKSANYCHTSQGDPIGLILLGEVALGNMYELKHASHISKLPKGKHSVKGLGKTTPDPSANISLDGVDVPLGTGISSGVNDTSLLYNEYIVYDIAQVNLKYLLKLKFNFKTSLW

SMILES | IC50 (PARP-1 enzyme) [nM] | EC50 (PARP) [nM]
O=c1[nH]c2c(c3c1CCCC3)Cc1c(CN3CCC(O)CC3)cccc1-2 [Example 3, 10-((4-hydroxypiperidin-1-yl)methyl)-3,4,6,11-tetrahydro-1H-indeno[1,2-c]isoquinolin-5(2H)-one hydrochloride] | 11.3 | 
O=c1[nH]c2c(c3c1CCCC3)Cc1c(CN3CCCCC3)cccc1-2 [Example 4, 10-(piperidin-1-ylmethyl)-3,4,6,11-tetrahydro-1H-indeno[1,2-c]isoquinolin-5(2H)-one hydrochloride] |  | 1.5
O=c1[nH]c2c(c3c1CCCC3)Cc1c(CN3CCCCCC3)cccc1-2 [Example 5, 10-(azepan-1-ylmethyl)-3,4,6,11-tetrahydro-1H-indeno[1,2-c]isoquinolin-5(2H)-one] |  | 7.8
O=c1[nH]c2c(c3c1CCCC3)Cc1c(CN3CCCC3)cccc1-2 [Example 6, 10-(pyrrolidin-1-ylmethyl)-3,4,6,11-tetrahydro-1H-indeno[1,2-c]isoquinolin-5(2H)-one] |  | 8.46
O=c1[nH]c2c(c3c1CCCC3)Cc1c(CN3CCCC3)cccc1-2 [Example 8, 10-(pyrrolidin-1-ylmethyl)-3,4,6,11-tetrahydro-1H-indeno[1,2-c]isoquinolin-5(2H)-one hydrochloride] |  | 8.5
O=c1[nH]c2c(c3c1CCCC3)Cc1c(CN3CCCCCCC3)cccc1-2 [Example 10, 10-(azocan-1-ylmethyl)-3,4,6,11-tetrahydro-1H-indeno[1,2-c]isoquinolin-5(2H)-one] |  | 37
O=c1[nH]c2c(c3c1CCCC3)Cc1c(CN3CCC(F)(F)CC3)cccc1-2 [Example 12, 10-((4,4-difluoropiperidin-1-yl)methyl)-3,4,6,11-tetrahydro-1H-indeno[1,2-c]isoquinolin-5(2H)-one] |  | 749
O=c1[nH]c2c(c3c1CCCC3)Cc1c(CN3CCSC3)cccc1-2 [Example 13, 10-(thiazolidin-3-ylmethyl)-3,4,6,11-tetrahydro-1H-indeno[1,2-c]isoquinolin-5(2H)-one] |  | 169
CCOC1CCN(Cc2cccc3c2Cc2c-3[nH]c(=O)c3c2CCCC3)CC1 [Example 14, 10-((4-ethoxypiperidin-1-yl)methyl)-3,4,6,11-tetrahydro-1H-indeno[1,2-c]isoquinolin-5(2H)-one mesylate] |  | 12.7
O=c1[nH]c2c(c3c1CCCC3)Cc1c(CN3CC[C@H](F)C3)cccc1-2 [Example 15, (S)-10-((3-fluoropyrrolidin-1-yl)methyl)-3,4,6,11-tetrahydro-1H-indeno[1,2-c]isoquinolin-5(2H)-one] |  | 11.7
O=c1[nH]c2c(c3c1CCCC3)Cc1c(CN3CCC(N4CCCCC4)CC3)cccc1-2 [Example 22, 10-(1,4′-bipiperidin-1′-ylmethyl)-3,4,6,11-tetrahydro-1H-indeno[1,2-c]isoquinolin-5(2H)-one dihydrochloride] |  | 7.8
COCCNCc1cccc2c1Cc1c-2[nH]c(=O)c2c1CCCC2 [Example 27, 10-((2-methoxyethylamino)methyl)-3,4,6,11-tetrahydro-1H-indeno[1,2-c]isoquinolin-5(2H)-one] |  | 16
CN(C)Cc1cccc2c1Cc1c-2[nH]c(=O)c2c1CCCC2 [Example 28] |  | 35
O=c1[nH]c2c(c3c1CCCC3)Cc1c(CO)cccc1-2 [Example 29, 10-(hydroxymethyl)-3,4,6,11-tetrahydro-1H-indeno[1,2-c]isoquinolin-5(2H)-one] |  | 25
COC(=O)c1ccc2c(c1)Cc1c-2[nH]c(=O)c2c1CCCC2 [Example 30, methyl 5-oxo-2,3,4,5,6,11-hexahydro-1H-indeno[1,2-c]isoquinoline-9-carboxylate] |  | 250
O=c1[nH]c2c(c3c1CCCC3)Cc1c(CN3CCNCC3)cccc1-2 [Example 31, 10-(piperazin-1-ylmethyl)-3,4,6,11-tetrahydro-1H-indeno[1,2-c]isoquinolin-5(2H)-one] |  | 80

SMILES | IC50 (PARP-1 enzyme) [nM] | EC50 (PARP) [nM]
O=c1[nH]c2c(c3c1CCCC3)Cc1cc(CO)ccc1-2 [Example 33, 9-(hydroxymethyl)-3,4,6,11-tetrahydro-1H-indeno[1,2-c]isoquinolin-5(2H)-one] |  | 95
CCCN1CCN(Cc2ccc3c(c2)Cc2c-3[nH]c(=O)c3c2CCCC3)CC1 [Example 34, 9-((4-propylpiperazin-1-yl)methyl)-3,4,6,11-tetrahydro-M-indeno[1,2-c]isoquinolin-5(2H)-one] |  | 200
COCCN1CCN(Cc2ccc3c(c2)Cc2c-3[nH]c(=O)c3c2CCCC3)CC1 [Example 35, 9-((4-(2-methoxyethyl)piperazin-1-yl)methyl)-3,4,6,11-tetrahydro-1H-indeno[1,2-c]isoquinolin-5(2H)-one] |  | 300
O=c1[nH]c2c(c3c1CCCC3)Cc1cc(CN3CCOCC3)ccc1-2 [Example 37, 9-(morpholinomethyl)-3,4,6,1′-tetrahydro-4H-indeno[1,2-c]isoquinolin-5(2H)-one] |  | 300
O=c1[nH]c2c(c3c1CCCC3)Cc1cc(CN3CCC(O)CC3)ccc1-2 [Example 38, 9-((4-hydroxypiperidin-1-yl)methyl)-3,4,6,11-tetrahydro-1H-indeno[1,2-c]isoquinolin-5(2H)-one] |  | 300
O=c1[nH]c2c(c3c1CCCC3)Cc1cc(CN3CCCC3)ccc1-2 [Example 39, 9-(pyrrolidin-1-ylmethyl)-3,4,6,11-tetrahydro-1H-indeno[1,2-c]isoquinolin-5(2H)-one] |  | 100
O=c1[nH]c2c(c3c1CCCC3)Cc1cc(CNC3CCCC3)ccc1-2 [Example 40, 9-((cyclopentylamino)methyl)-3,4,6,11-tetrahydro-1H-indeno[1,2-c]isoquinolin-5(2H)-one] |  | 60
CCCCN1CCN(Cc2ccc3c(c2)Cc2c-3[nH]c(=O)c3c2CCCC3)CC1 [Example 44, 9-((4-butylpiperazin-1-yl)methyl)-3,4,6,11-tetrahydro-4H-indeno[1,2-c]isoquinolin-5(2H)-one] |  | 200
CC(C)(N)c1cccc2c1Cc1c-2[nH]c(=O)c2c1CCCC2 [Example 46, 10-(2-aminopropan-2-yl)-3,4,6,11-tetrahydro-1H-indeno[1,2-c]isoquinolin-5(2H)-one] |  | 8
O=c1[nH]c2c(c3ccsc13)Cc1c(CN3CCC(C(F)(F)F)CC3)cccc1-2 [Example 47, 9-((4-(trifluoromethyl)piperidin-1-yl)methyl)-5,10-dihydro-4H-indeno[1,2-b]thieno[3,2-d]pyridin-4-one] |  | 9
O=c1[nH]c2c(c3sccc13)Cc1c(CN3CCC(C(F)(F)F)CC3)cccc1-2 [Example 54, 9-((4-(trifluoromethyl)piperidin-1-yl)methyl)-5,10-dihydro-4H-indeno[1,2-b]thieno[2,3-d]pyridin-4-one] |  | > 500
O=c1[nH]c2c(c3ncccc13)Cc1c(CO)cccc1-2 [Example 57, 10-(hydroxymethyl)-6,11-dihydro-5H-indeno[1,2-h][1,6]naphthyridin-5-one] |  | 334
COC(=O)c1cccc2c1Cc1c-2[nH]c(=O)c2c1CCCC2 [Example 63, methyl 5-oxo-2,3,4,5,6,11-hexahydro-1H-indeno[1,2-c]isoquinoline-10-carboxylate] |  | 100
CCN(CC)Cc1ccc2c(c1)Cc1c-2[nH]c(=O)c2c1CCCC2 [Example 64, 9-((diethylamino)methyl)-3,4,6,11-tetrahydro-1H-indeno[1,2-c]isoquinolin-5(2H)-one] |  | 4.48
O=c1[nH]c2c(c3c1CCCC3)Cc1cc(CN3CCC(F)(F)CC3)ccc1-2 [Example 65, 9-((4,4-difluoropiperidin-1-yl)methyl)-3,4,6,11-tetrahydro-1H-indeno[1,2-c]isoquinolin-5(2H)-one] |  | 748
O=c1[nH]c2c(c3c1CCCC3)Cc1cc(CN3CCC(F)CC3)ccc1-2 [Example 66, 9-((4-fluoropiperidin-1-yl)methyl)-3,4,6,11-tetrahydro-1H-indeno[1,2-c]isoquinolin-5(2H)-one] |  | 37.5
